Entries after “also recorded” stand apart in the source; their conditions may differ. Where a name gives a salt, the structure may show the parent alone. Read-outs that look alike come from different tables or passages of the source.
Columns and labels:
T. mentagrophytes = test: Trychophyton mentagrophytes anti-fungal paper disc lawn assay; format: cell-based
Protocol: A single colony of T. mentagrophytes was picked from a stock plate and grown for 48 hours in 5 mls of YEPD (yeast extract, peptone, dextrose) medium at 30° C. A sterile swab was dipped into the resulting culture and then used to spread a lawn of T. mentagrophytes onto a YEPD agar plate supplemented with chloramphenicol (50 ug/ml). […] A 10 mm sterile paper disc was soaked in test solution, the excess liquid removed and the disc placed onto the T. mentagrophytes lawn. Plates were inverted and incubated at 30° C. for 5 days. The first experiment performed was to establish the approximate MIC (minimum inhibitor concentration) for terbinafine against T. mentagrophytes in a paper disc assay. […] After 5 days of incubation, zones of clearance were observed around the discs with concentrations of terbinafine having anti-fungal activity against this species (as shown in FIG. 10). […] The reported figures were certainly derived from a liquid MIC assay, which is known to be more sensitive, and so this paper disc assay represented a substantially more stringent test of drug efficacy. This assay was also used to address the question of whether terbinafine passing through the nail in BB0305 treated samples still retained its antifungal efficacy.

[1] = Nanoparticle analysis on Nanosight LM10; format: physicochemical
Protocol: Nanoparticle formation was routinely confirmed on a Nanosight LM10 instrument (Malvern Instruments). Additional nanoparticle analyses were carried out using a Zetasizer (Malvern Instruments). […] Initial analysis used a Nanosight LM10 nanosizer (Malvern Instruments) to detect nanoparticles in solution. […] The LM10 uses direct visualisation of the particles through a microscope where particles are tracked by a video camera and their sizes calculated using the Einstein-Stokes equation, which relates particle velocity in a solution to their diameter. This video capture also allows for a qualitative assessment of different formulations during their analysis. However, this instrument has a lower cut-off range of approximately 20 nm diameter for analysis.

[2] = format: in vitro ADME; details: human, 7 days
Protocol: Nail clippings were soaked in water overnight at 30° C. and dried briefly. A 3 mm diameter punch was used to take disc biopsies of the nail clippings. Each nail disc was added to a Franz cell and an upper chamber of the cell attached. 40 μl of the following formulations was added to the upper chambers: 0.3 mg/ml PHMB+0.1 mg/ml terbinafine; or 10 mg/ml terbinafine. Lower collection chambers of the Franz cells were filled with water (approximately 600 μl) and the hole in the base of the sample chamber also filled with ddH2O to prevent bubbles forming beneath the nail. The upper sample chamber was carefully placed into the collection chamber ensuring not to introduce any air bubbles. Excess liquid from the collection chamber was expelled at this point leaving a final volume of liquid in the lower chamber of 500 μl. […]
The nail discs from the Franz cell were also analysed for the presence of terbinafine as follows: the remaining test sample was removed from the upper sample chamber and discarded and the sample chamber washed 5 times with 100 μl ddH2O, with each wash being discarded, in order to remove any residual test solution remaining in the sample chamber. […]
The cells were then incubated at 32° C. for 7 days. […] After 7 days, samples from the underside of the nail (ethanol washes) were collected and analysed by LC-MS/MS. […] Levels of terbinafine were quantified against drug standards. […]

Epidermophyton floccosum = details: 42 strains tested; cited from earlier work
Microsporum species = details: 25 strains tested; cited from earlier work
Microsporum canis = details: 49 strains tested; cited from earlier work
Trichophyton species = details: 27 strains tested; cited from earlier work
Trichophyton rubrum = details: 72 strains tested; cited from earlier work
Trichophyton verrucosum = details: 17 strains tested; cited from earlier work
[3] = system: Trichophyton mentagrophytes; details: cited from earlier work
[4] = system: Trichophyton interdigitale; details: 11 strains tested; cited from earlier work
Trichophyton terestre = details: 1 strain tested; cited from earlier work
[5] = oral dosing, cited from earlier work
onychomycosis [6] = details: oral, following 3-6 months of dosing; cited from earlier work
onychomycosis [7] = details: topical terbinafine; hydrochloride; cited from earlier work

CN(C/C=C/C#CC(C)(C)C)Cc1cccc2ccccc12 [terbinafine, terbinafine hydrochloride]
paper disc MIC relative to previously reported MIC (T. mentagrophytes; 0.6 μg/ml versus 6 ng/ml): > 100 ×
MIC (T. mentagrophytes; Trichophyton mentagrophytes, 120 h, paper disc assay, 5 days incubation, approximate, read-out: MIC (minimum inhibitor concentration)): 600 ng/mL
antifungal activity (zone of clearance) of sample that passed through nail (T. mentagrophytes; aqueous phase of Franz cell collection chamber after 7 days treatment of healthy human nail, 30° C., 5 days): no effect
number of particles/ml of solution ([1]; 0.1 mg/ml terbinafine in 30% (v/v) ethanol): < 5e+07 mL⁻¹
particle size range (diameter) ([1]; 0.1 mg/ml terbinafine, 30% ethanol): 50-800 nm
particle number ([1]; 30% ethanol, room temperature at least 24 hours, 0.1 mg/ml terbinafine): 0.5×10^8 particles/ml
median concentration of drug in dissolved nails [2]: approximately 0.5 mg/g
terbinafine passing through the nail (ethanol washes of underside) ([2]; 0.1 mg/ml): < 0.1 ng/mL
MIC range (Epidermophyton floccosum): 1 to 47 ng/mL
MIC range (Microsporum species): 2 to 70 ng/mL
MIC range (Microsporum canis): 6 to 80 ng/mL
MIC range (Trichophyton species): ≤60 ng/mL
MIC range (Trichophyton rubrum): 1 to 38 ng/mL
MIC range (Trichophyton verrucosum): 1 to 6 ng/mL
MIC range ([3]; 32 strains tested): 1 to 6 ng/mL
previously reported MIC ([3]; liquid MIC assay, with reference to Table 1): 6 ng/mL
MIC range [4]: 2 to 28 ng/mL
MIC range (Trichophyton terestre): 2 ng/mL
terbinafine concentration in nails ([5]; after 3 weeks): about 0.25 μg/g
terbinafine concentration in nails ([5]; after 18 months): 0.55 µg/g
terbinafine concentration in nails ([5]; after 7 days treatment): 0.1 µg/g
cure (onychomycosis [6]): > 80%
efficacy in the treatment of onychomycosis (onychomycosis [7]): failed to show efficacy; also recorded: failed to demonstrate any significant efficacy

From patent US12678414B2, “Compositions for treatment of fungal nail infections” (Blueberry Therapeutics Limited, priority 2016, dated 2026)
